Test systems include SNB-75; SK-MEL-2; HT-29; M14; BT-549; SNB-19; KM12; K562; RXF 393; HOP-62; A498; HCT-15; COLO 205; PC-3; SF-295; MDA-MB-231; TK-10; HOP-92; MDA-MB-435; NCI-H23.
Holding throughout (experiment): NCI-60 cell line screen, 48 h

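Grown in 96-well plates, cells were treated for 48 hours with each compound at five concentrations. Insufficient inhibition: endpoint recorded as highest concentration tested. GI50 is the concentration that inhibits growth by half.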 Calls of active or inactive are those of the source. No stated cut-off is given here; in the data, active = GI50 up to about 1.1 µM and inactive = higher.

In the case of `O=C(Oc1ccc2c(c1)CN(Cc1ccccc1)CO2)c1ccccc1`, the GI50 in the test with SNB-75 was 17.1 µM (inactive); in the test on SK-MEL-2, 22 µM (inactive); in the test on HT-29, 18.5 µM (inactive); in the test on M14, 18 µM (inactive); with BT-549, 18.5 µM (inactive); in the test with SNB-19, 18.7 µM (inactive). Also, the GI50 with KM12 was 20.7 µM (inactive); in the test on K562 it was 17.6 µM (inactive); in the test with RXF 393, 15.2 µM (inactive); in the test with HOP-62, 18.4 µM (inactive); in the test on A498, 17.3 µM (inactive); in the test on HCT-15 it was 16.9 µM. Further, the GI50 with COLO 205 is 16.9 µM (inactive); in the test on PC-3, 15.9 µM (inactive); with SF-295, 17.8 µM (inactive); with MDA-MB-231, 19.2 µM (inactive); in the test with TK-10, 16.2 µM (inactive); in the test on HOP-92 it was 12.7 µM (inactive). For the same compound, the GI50 in the test with MDA-MB-435 is 21.8 µM (inactive); in the test with NCI-H23, 15.8 µM (inactive).
Turning to `COc1cc2nc3n(c2cc1OC)C(O)c1c(Cl)nc(SC)nc1S3` (stereo not given), the GI50 with SNB-75 is 4.47 µM (inactive); in the test with SK-MEL-2, 2 µM (inactive); in the test on HT-29, 3.22 µM (inactive); with M14 it was 2.67 µM (inactive); in the test with BT-549 it was 2.16 µM (inactive); in the test on SNB-19, 6.47 µM (inactive). Moreover, the GI50 was 2.68 µM (inactive) with KM12; 3.03 µM (inactive) in the test with K562; 2.3 µM (inactive) with RXF 393; 3.72 µM (inactive) with HOP-62; 6.81 µM (inactive) in the test on A498; 2.64 µM with HCT-15. Besides, the GI50 was 4.78 µM (inactive) in the test with COLO 205; 2.75 µM (inactive) with PC-3; 7.4 µM (inactive) with SF-295; 4.42 µM (inactive) with MDA-MB-231; 5.46 µM (inactive) in the test on TK-10; 12.2 µM (inactive) in the test on HOP-92. Besides, the GI50 in the test on MDA-MB-435 was 4.01 µM (inactive); in the test with NCI-H23, 4.21 µM (inactive).
`S=C(/N=C1/NCC(CN2CCN(c3ccccc3)CC2)O1)Nc1ccccc1` (stereo not given): the GI50 was > 100 µM (inactive) with SNB-75; 35.6 µM (inactive) in the test with SK-MEL-2; 42.2 µM (inactive) in the test on HT-29; > 100 µM (inactive) in the test on M14; 37.5 µM (inactive) with BT-549; > 100 µM (inactive) in the test on SNB-19. The GI50 is 65.2 µM (inactive) in the test on KM12; 35.2 µM (inactive) in the test on K562; 39.8 µM (inactive) with RXF 393; 77.3 µM (inactive) in the test with HOP-62; > 100 µM (inactive) in the test with A498; 32.4 µM in the test on HCT-15. Also, the GI50 in the test on COLO 205 was 28.6 µM (inactive); in the test with PC-3 it was 39.9 µM (inactive); with SF-295, 49 µM (inactive); in the test on MDA-MB-231, 35.9 µM (inactive); with TK-10, > 100 µM (inactive); with HOP-92, 92.3 µM (inactive). Moreover, the GI50 was 70.8 µM (inactive) in the test with MDA-MB-435 and 29.3 µM (inactive) in the test with NCI-H23.
Turning to `CCC/N=C/c1cc(Cc2ccc(O)c(/C=N/CCC)c2)ccc1O`, the GI50 in the test with SNB-75 is 2.86 µM (inactive); with SK-MEL-2, 3 µM (inactive); in the test with HT-29, 12.5 µM (inactive); in the test on M14, 2.69 µM (inactive); with BT-549, 10.7 µM (inactive); in the test on SNB-19, 2.7 µM (inactive). The GI50 is 3.95 µM (inactive) in the test on KM12; 1.69 µM (inactive) in the test on K562; 16.3 µM (inactive) in the test with RXF 393; 14.1 µM (inactive) in the test with HOP-62; 2.37 µM (inactive) in the test on A498; 3.33 µM in the test on HCT-15. Further, the GI50 with COLO 205 is 16.1 µM (inactive); in the test with PC-3 it was 1.82 µM (inactive); with SF-295, 12.9 µM (inactive); in the test on MDA-MB-231, 9.89 µM (inactive); in the test on TK-10, 11.1 µM (inactive); in the test on HOP-92 it was 1.85 µM (inactive). Further, the GI50 in the test on MDA-MB-435 was 3.47 µM (inactive); in the test on NCI-H23, 6.46 µM (inactive).
With `Clc1ccc(CSc2ncnc3c2ncn3C2CCCCO2)cc1` (stereo not given), the GI50 in the test with SNB-75 is 20.2 µM (inactive); with SK-MEL-2 it was 16.4 µM (inactive); in the test on HT-29 it was 18.8 µM (inactive); in the test with M14 it was 17.1 µM (inactive); in the test with BT-549, 24.3 µM (inactive); in the test with SNB-19 it was 34.8 µM (inactive). Further, the GI50 in the test on KM12 was 19.1 µM (inactive); in the test with K562, 12.6 µM (inactive); with RXF 393, 25.1 µM (inactive); in the test with HOP-62, 18.7 µM (inactive); in the test on A498, 16.4 µM (inactive); in the test with HCT-15, 26.5 µM. Besides, the GI50 in the test with COLO 205 is 20 µM (inactive); in the test with PC-3 it was 25.6 µM (inactive); with SF-295, 15.7 µM (inactive); with MDA-MB-231, 24.5 µM (inactive); in the test on TK-10 it was 21.8 µM (inactive); in the test with HOP-92 it was 24.7 µM (inactive). The GI50 with MDA-MB-435 was 18.2 µM (inactive); in the test with NCI-H23 it was 17.4 µM (inactive).
For the compound `CC(C)CSCC1OC(n2cnc3c(N)nccc32)C(O)C1O` (stereo not given), the GI50 in the test on SNB-75, with SK-MEL-2, in the test on HT-29, in the test on M14, in the test with BT-549 and in the test on SNB-19 was > 100 µM (inactive) each time. Further, the GI50 in the test with KM12 was > 100 µM (inactive); with K562, > 75 µM (inactive); in the test with RXF 393 it was > 52 µM (inactive); with HOP-62 it was > 100 µM (inactive); with A498, > 100 µM (inactive); in the test on HCT-15 it was greater than 100 µM. Besides, the GI50 was > 86.1 µM (inactive) in the test with COLO 205; > 100 µM (inactive) with PC-3; > 100 µM (inactive) in the test with SF-295; > 100 µM (inactive) in the test on MDA-MB-231; > 100 µM (inactive) in the test on TK-10; > 72.9 µM (inactive) with HOP-92. For the same compound, the GI50 in the test with MDA-MB-435 and with NCI-H23 was > 100 µM (inactive) in each case.
As to `CCN(CC)CC[n+]1ccc2c(C)c3[nH]c4ccc(O)cc4c3c(C)c2c1`, the GI50 is 1 µM (active) in the test on SNB-75; 16 µM (inactive) with SK-MEL-2; 8.45 µM (inactive) with HT-29; 10.7 µM (inactive) with M14; 12.7 µM (inactive) in the test on BT-549; 1.21 µM (inactive) with SNB-19. The GI50 in the test with KM12 was 4.31 µM (inactive); with K562, 4.06 µM (inactive); in the test with RXF 393, 11.1 µM (inactive); with HOP-62 it was 2.03 µM (inactive); with A498, 16.2 µM (inactive); with HCT-15, 18.7 µM. Further, the GI50 was 3.18 µM (inactive) with COLO 205; 7.46 µM (inactive) in the test on PC-3; 3.01 µM (inactive) with SF-295; 10.6 µM (inactive) with MDA-MB-231; 28.3 µM (inactive) with TK-10; 3.85 µM (inactive) in the test with HOP-92. For the same compound, the GI50 in the test on MDA-MB-435 is 9.42 µM (inactive); with NCI-H23 it was 3.82 µM (inactive).

(Values after ChEMBL document CHEMBL1201862, “PubChem BioAssay data set” (2004).)
